Tests used:
K562 cells = assay: Growth of K562 single cell colonies in microfluidic trap array in the presence of Imatinib; format: cell-based; details: K562 cells grown with 0.1 μM, 0.3 μM, 0.5 μM Imatinib or control; FIG. 20
From the text: (§1) Cells were introduced to the array and transferred to the interior chambers with a gentle trap and transfer technique that is similar to previously reported methods (Dura, et al. (2014), “Deformability-based microfluidic cell pairing and fusion”, Lab. Chip 14:2783). Specifically, we first captured cells at the entrance of the traps, and next transferred the cells into the chambers with a brief pressure burst, causing the cells to squeeze through the narrow constrictions and move into the interior chambers. The widths of the constrictions were adjusted in the range of 3-6 microns, depending on the cell type the device was designed to capture. […] Flow control was achieved by adjusting negative pressure at the outlet, which allowed cells to be pipetted directly in the inlet reservoir with minimal losses from dead volume. Additionally, this approach allowed us to wash the cells from the inlet reservoir once the array was fully populated. […]
(§2) Cells were imaged twice per day and immediately returned to the incubator after each imaging cycle, requiring around 5-10 minutes for each chip. After 7 days, the imaging dataset was analyzed by custom computer vision software written in Python using a pre-trained Mask_RCNN image segmentation model. […]

MOLM 13 cells = assay: Growth of MOLM 13 cells in microfluidic chambers in the presence of Quizartinib; format: cell-based; details: drug vs control medium, images FIG. 22A/22B
From the text: as §1, §2

| Structure (SMILES) | growth rate distribution of colonies (K562 cells) | outgrowth of clones in the presence of the drug (MOLM 13 cells) |
| --- | --- | --- |
| Cc1ccc(NC(=O)c2ccc(CN3CCN(C)CC3)cc2)cc1Nc1nccc(-c2cccnc2)n1 [Imatinib] | decreased growth rate with increasing drug concentration |  |
| CC(C)(C)c1cc(NC(=O)Nc2ccc(-c3cn4c(n3)sc3cc(OCCN5CCOCC5)ccc34)cc2)no1 [Quizartinib] |  | A single clone is observed to grow out in the presence of the drug |

Reference: patent US20210114029A1, “DEVICES, SYSTEMS, AND METHODS FOR HIGH THROUGHPUT SINGLE CELL ANALYSIS” (Duke University, priority 2017, published 2021)
